A short description of data set [1]: Selectivity index, ratio of CC50 for African green monkey Vero cells to EC50 for Kaposi's sarcoma-associated herpesvirus infected in African green monkey Vero cells. The following applies: read-out: Ratio CC50/EC50. The class given is toxicity, cell-based.
The next data set deals with Human gammaherpesvirus 8. The data set can be described thus: Antiviral activity against Kaposi's sarcoma-associated herpesvirus infected in African green monkey Vero cells exposed to supernatant from 48 hrs compound treated human iSLK.219 cells infected with KSHV by GFP based microscopy. The class given is functional, cell-based. The following applies: Human gammaherpesvirus 8, Vero.

Data set [2] in a line: Cytotoxicity against African green monkey Vero cells assessed as reduction in cell viability after 48 hrs by Alamar blue assay. The following applies: chlorocebus sabaeus. The class given is toxicity, cell-based.

Bounds are passed on as bounds.

Consider `CC(C)C(=O)c1c(O)cc(O)c(C[C@@H]2[C@@H](C(C)(C)O)CC[C@]2(C)O)c1O`, for which the selectivity ratio in data set [1] was greater than 1.89. Besides, in the data set with Human gammaherpesvirus 8, the EC50 turned out to be 158 µM. Besides, the CC50 at 48 h in data set [2] is greater than 300 µM.

In the data set on Human gammaherpesvirus 8, `CC(C)C(=O)c1c(O)cc(O)c2c1OC(C)(C)[C@@H]1CC[C@@](C)(O)[C@H]1C2` yielded an EC50 of 39.8 µM. Moreover, in data set [2], the CC50 at 48 h was greater than 300 µM.

Turning to `CC(C)C(=O)c1c(O)cc(O)c2c1O[C@@]1(C)CC[C@@H](C(C)(C)O)[C@@H]2[C@H]1O`, in data set [1], the selectivity ratio was greater than 2.46. This compound showed an EC50 with Human gammaherpesvirus 8 of 203 µM. Further, the CC50 at 48 h in data set [2] is greater than 500 µM.

In the data set with Human gammaherpesvirus 8, `CC(C)C(=O)c1c(O)cc(O)c2c1OC(C)(C)[C@H]1CC[C@](C)(O)[C@@H]1C2` registered an EC50 of 17.7 µM. For the same compound, in data set [2], the CC50 at 48 h turned out to be 221 µM.

On to `CC(C)C(=O)c1c(O)cc(O)c(C[C@H]2[C@H](C(C)(C)O)CC[C@@]2(C)O)c1O`, for which the selectivity ratio in data set [1] is greater than 7.5. In the data set with Human gammaherpesvirus 8, this compound gave an EC50 of 40 µM. In data set [2], the CC50 at 48 h is greater than 300 µM.

As for `CC(C)C(=O)c1c(O)cc(O)c2c1O[C@]1(C)CC[C@H](C(C)(C)O)[C@H]2[C@@H]1O`, the selectivity ratio in data set [1] is greater than 3.55. In addition, the concentration giving a half-maximal response (EC50) with Human gammaherpesvirus 8 amounted to 141 µM. Also, the CC50 at 48 h in data set [2] was greater than 500 µM.

With `CC(C)C(=O)c1c(O)cc(O)c2c1O[C@]1(C)CC[C@@H](C(C)(C)O)O[C@@H]1C2`, the EC50 in the data set on Human gammaherpesvirus 8 was 29.1 µM. The CC50 at 48 h in data set [2] was 174 µM.

Regarding `CC(C)C(=O)c1c(O)cc(O)c2c1O[C@@]1(C)CC[C@H](C(C)(C)O)O[C@H]1C2`, in the data set with Human gammaherpesvirus 8, it took 8.75 µM to reach a half-maximal effect (EC50). The CC50 at 48 h in data set [2] stood at 141 µM.

Values taken from ChEMBL document CHEMBL3853282, “(±)-Japonicols A-D, Acylphloroglucinol-Based Meroterpenoid Enantiomers with Anti-KSHV Activities from Hypericum japonicum” (J Nat Prod, 2016).
